{"source": "ChEMBL document CHEMBL3856191", "about": "“Structural modifications at the 6-position of thieno[2,3-d]pyrimidines and their effects on potency at FLT3 for treatment of acute myeloid leukemia” (Eur J Med Chem, 2016)", "key": {"[1]": {"target": "Receptor tyrosine-protein kinase erbB-2 (Homo sapiens) (UniProt P04626)", "test": "Inhibition of recombinant human ERBB2 expressed in insect cells assessed as remaining activity at 10 uM preincubated for 15 mins followed by poly(Glu:Tyr) substrate addition for 30 mins in presence of [gamma-32P]ATP by […] assay"}, "cells [2]": {"test": "cells", "settings": "Homo sapiens, MV4-11, 48 h", "description": "Growth inhibition of human MV4-11 cells expressing FLT3-ITD after 48 hrs by XTT assay"}, "[3]": {"target": "Tyrosine-protein kinase SYK (Homo sapiens) (UniProt P43405)", "test": "Inhibition of recombinant human SYK expressed in insect Sf21 cells assessed as remaining activity at 10 uM preincubated for 15 mins followed by poly(Glu:Tyr) substrate addition for 30 mins in presence of [gamma-32P]ATP by […] assay"}, "[4]": {"target": "Dual specificity mitogen-activated protein kinase kinase 7 (Homo sapiens) (UniProt O14733)", "test": "Inhibition of human MKK7beta assessed as remaining activity at 10 uM in presence of [gamma-32P]ATP by […] assay"}, "[5]": {"test": "AUC (0 to infinity) in Sprague-Dawley rat at 5 mg/kg, iv up to 24 hrs by LC/MS/MS analysis", "format": "ADME, organism-based", "set-up": "dose 5 mg/kg, route intravenous, time infinity", "settings": "in vivo"}, "[6]": {"test": "Elimination half life in Sprague-Dawley rat at 30 mg/kg, po by LC/MS/MS analysis", "format": "ADME, organism-based", "settings": "in vivo, read-out: beta t1/2 (converted)"}, "[7]": {"target": "Mitogen-activated protein kinase 10 (Homo sapiens) (UniProt P53779)", "test": "Inhibition of recombinant human JNK3 expressed in insect Sf21 cells assessed as remaining activity at 10 uM preincubated for 15 mins followed by ATF2 substrate addition for 30 mins in presence of [gamma-32P]ATP by […] assay"}, "[8]": {"target": "Epidermal growth factor receptor (Homo sapiens) (UniProt P00533)", "sequence (P00533 whole entry)": "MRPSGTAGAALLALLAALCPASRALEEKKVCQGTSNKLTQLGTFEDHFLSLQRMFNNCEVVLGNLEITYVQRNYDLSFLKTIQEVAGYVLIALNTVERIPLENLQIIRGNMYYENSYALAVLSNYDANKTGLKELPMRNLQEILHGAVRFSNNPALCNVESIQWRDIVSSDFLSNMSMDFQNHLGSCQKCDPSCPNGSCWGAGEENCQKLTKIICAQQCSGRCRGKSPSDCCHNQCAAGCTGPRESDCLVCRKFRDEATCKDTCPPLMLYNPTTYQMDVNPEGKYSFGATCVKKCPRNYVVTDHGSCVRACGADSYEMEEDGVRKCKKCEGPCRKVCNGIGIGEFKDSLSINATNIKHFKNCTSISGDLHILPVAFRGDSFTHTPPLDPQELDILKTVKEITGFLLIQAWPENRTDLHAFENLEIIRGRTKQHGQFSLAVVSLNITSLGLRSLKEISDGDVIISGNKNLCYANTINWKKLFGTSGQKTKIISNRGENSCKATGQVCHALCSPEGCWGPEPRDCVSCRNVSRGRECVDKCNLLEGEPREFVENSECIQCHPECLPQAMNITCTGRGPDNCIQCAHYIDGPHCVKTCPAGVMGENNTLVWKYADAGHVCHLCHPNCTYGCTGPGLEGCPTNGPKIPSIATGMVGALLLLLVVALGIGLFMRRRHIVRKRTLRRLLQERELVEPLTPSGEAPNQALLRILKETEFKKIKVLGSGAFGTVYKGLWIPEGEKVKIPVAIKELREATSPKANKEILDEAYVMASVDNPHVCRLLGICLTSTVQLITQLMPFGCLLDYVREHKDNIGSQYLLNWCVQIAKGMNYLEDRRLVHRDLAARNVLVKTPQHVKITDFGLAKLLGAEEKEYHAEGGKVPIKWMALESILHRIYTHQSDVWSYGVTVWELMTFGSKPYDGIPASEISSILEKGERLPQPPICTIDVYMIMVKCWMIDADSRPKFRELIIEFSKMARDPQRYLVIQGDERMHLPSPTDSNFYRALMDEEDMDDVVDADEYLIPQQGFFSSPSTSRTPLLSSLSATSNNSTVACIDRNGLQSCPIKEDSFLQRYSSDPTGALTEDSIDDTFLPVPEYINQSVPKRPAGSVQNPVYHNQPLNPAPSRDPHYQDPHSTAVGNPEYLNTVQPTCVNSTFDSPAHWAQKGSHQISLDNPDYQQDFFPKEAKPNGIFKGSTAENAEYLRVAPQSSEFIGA", "test": "Inhibition of human EGFR assessed as remaining activity at 10 uM in presence of [gamma-32P]ATP by […] assay"}, "[9]": {"test": "Cmax in Sprague-Dawley rat at 30 mg/kg, po by LC/MS/MS analysis", "format": "ADME, organism-based", "set-up": "dose 30 mg/kg, route oral", "settings": "in vivo"}, "[10]": {"target": "Aurora kinase A (Homo sapiens) (UniProt O14965)", "test": "Inhibition of recombinant human AURORA A expressed in insect Sf21 cells assessed as remaining activity at 10 uM preincubated for 15 mins followed by Kemptide substrate addition for 30 mins in presence of [gamma-32P]ATP by […] assay"}, "[11]": {"target": "Ribosomal protein S6 kinase alpha-5 (Homo sapiens) (UniProt O75582)", "sequence (O75582 whole entry, looked up)": "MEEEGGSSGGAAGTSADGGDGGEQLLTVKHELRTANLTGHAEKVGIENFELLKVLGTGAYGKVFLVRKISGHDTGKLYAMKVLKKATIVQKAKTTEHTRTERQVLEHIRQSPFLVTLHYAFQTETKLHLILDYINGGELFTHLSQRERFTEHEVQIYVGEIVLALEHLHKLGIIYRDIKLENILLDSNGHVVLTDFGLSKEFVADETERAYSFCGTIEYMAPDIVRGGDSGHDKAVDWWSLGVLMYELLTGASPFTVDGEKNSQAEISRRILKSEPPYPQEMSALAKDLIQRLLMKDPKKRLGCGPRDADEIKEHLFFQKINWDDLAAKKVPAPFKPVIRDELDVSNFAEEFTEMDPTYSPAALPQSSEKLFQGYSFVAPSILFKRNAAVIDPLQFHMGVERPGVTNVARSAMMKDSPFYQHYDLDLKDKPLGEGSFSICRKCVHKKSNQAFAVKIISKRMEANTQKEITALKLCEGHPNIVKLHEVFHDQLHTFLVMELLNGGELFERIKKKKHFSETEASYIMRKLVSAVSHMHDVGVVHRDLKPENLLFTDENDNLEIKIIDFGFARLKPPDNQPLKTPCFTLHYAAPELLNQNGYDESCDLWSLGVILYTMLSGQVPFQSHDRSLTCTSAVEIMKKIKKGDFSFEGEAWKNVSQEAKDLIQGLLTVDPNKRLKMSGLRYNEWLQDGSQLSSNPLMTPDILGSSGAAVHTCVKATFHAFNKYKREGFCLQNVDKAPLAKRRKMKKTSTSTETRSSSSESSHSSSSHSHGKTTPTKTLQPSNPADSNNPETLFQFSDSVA", "test": "Inhibition of recombinant human MSK1 expressed in insect Sf21 cells assessed as remaining activity at 10 uM preincubated for 15 mins followed by Crosstide KK substrate addition for 30 mins in presence of [gamma-32P]ATP by […] assay"}, "[12]": {"target": "Fibroblast growth factor receptor 1 (Homo sapiens) (UniProt P11362)", "test": "Inhibition of recombinant human FGFR1 expressed in insect Sf21 cells assessed as remaining activity at 10 uM preincubated for 15 mins followed by poly(Glu:Tyr) substrate addition for 30 mins in presence of [gamma-32P]ATP by […] assay"}, "[13]": {"target": "Tyrosine-protein kinase receptor UFO (Homo sapiens) (UniProt P30530)", "test": "Inhibition of recombinant human AXL expressed in insect Sf21 cells assessed as remaining activity at 10 uM preincubated for 15 mins followed by poly(Glu:Tyr) substrate addition for 30 mins in presence of [gamma-32P]ATP by […] assay"}, "[14]": {"target": "Mitogen-activated protein kinase 1 (Homo sapiens) (UniProt P28482)", "test": "Inhibition of recombinant human MAPK1 expressed in Escherichia coli assessed as remaining activity at 10 uM preincubated for 15 mins followed by myelin basic protein substrate addition for 30 mins in presence of [gamma-32P]ATP by […] assay"}, "cells [15]": {"test": "cells", "settings": "Homo sapiens, K562, 48 h", "description": "Growth inhibition of human K562 cells after 48 hrs by XTT assay"}, "[16]": {"target": "Mitogen-activated protein kinase 9 (Homo sapiens) (UniProt P45984)", "sequence (P45984 whole entry, looked up)": "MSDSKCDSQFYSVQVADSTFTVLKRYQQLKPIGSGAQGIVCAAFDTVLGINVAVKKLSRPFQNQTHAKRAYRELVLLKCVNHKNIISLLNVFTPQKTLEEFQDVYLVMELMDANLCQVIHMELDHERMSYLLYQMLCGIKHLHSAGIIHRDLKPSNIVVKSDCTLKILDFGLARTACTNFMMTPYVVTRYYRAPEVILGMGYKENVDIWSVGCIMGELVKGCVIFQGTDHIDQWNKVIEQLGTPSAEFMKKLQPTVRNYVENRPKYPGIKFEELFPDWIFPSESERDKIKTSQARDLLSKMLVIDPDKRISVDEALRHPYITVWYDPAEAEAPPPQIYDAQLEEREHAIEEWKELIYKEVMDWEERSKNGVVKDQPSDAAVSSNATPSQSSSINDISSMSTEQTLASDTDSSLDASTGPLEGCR", "test": "Inhibition of recombinant human JNK2alpha2 expressed in insect Sf21 cells assessed as remaining activity at 10 uM preincubated for 15 mins followed by ATF2 substrate addition for 30 mins in presence of [gamma-32P]ATP by […] assay"}, "[17]": {"target": "Serine/threonine-protein kinase pim-1 (Homo sapiens) (UniProt P11309)", "sequence (P11309 whole entry, looked up)": "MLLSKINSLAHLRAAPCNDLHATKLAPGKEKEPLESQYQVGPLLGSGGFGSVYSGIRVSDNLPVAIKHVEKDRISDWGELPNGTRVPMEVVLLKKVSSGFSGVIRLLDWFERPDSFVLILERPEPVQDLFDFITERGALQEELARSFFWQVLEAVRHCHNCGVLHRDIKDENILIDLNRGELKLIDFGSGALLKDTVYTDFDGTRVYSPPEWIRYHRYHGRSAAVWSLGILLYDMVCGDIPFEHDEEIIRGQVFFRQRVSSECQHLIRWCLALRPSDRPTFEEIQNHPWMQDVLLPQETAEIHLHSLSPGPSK", "test": "Inhibition of recombinant human PIM1 expressed in Escherichia coli assessed as remaining activity at 10 uM preincubated for 15 mins followed by S6 kinase/Rsk2 substrate peptide 2 addition for 30 mins in presence of [gamma-32P]ATP by […] assay"}, "[18]": {"target": "Mitogen-activated protein kinase 12 (Homo sapiens) (UniProt P53778)", "sequence (P53778 whole entry)": "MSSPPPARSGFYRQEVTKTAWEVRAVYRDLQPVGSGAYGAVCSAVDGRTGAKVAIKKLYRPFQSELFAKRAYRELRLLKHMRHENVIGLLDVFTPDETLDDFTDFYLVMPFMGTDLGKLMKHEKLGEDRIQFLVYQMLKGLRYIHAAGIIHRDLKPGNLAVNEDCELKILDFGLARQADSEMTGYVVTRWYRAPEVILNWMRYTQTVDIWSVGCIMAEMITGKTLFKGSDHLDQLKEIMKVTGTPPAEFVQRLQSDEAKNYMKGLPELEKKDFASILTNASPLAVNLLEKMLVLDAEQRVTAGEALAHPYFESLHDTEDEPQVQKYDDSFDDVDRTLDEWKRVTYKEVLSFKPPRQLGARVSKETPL", "test": "Inhibition of human SAPK3 assessed as remaining activity at 10 uM in presence of [gamma-32P]ATP by […] assay"}, "[19]": {"test": "Metabolic stability in rat liver microsomes assessed as compound remaining at 1 uM after 30 mins in presence of NADPH by HPLC-MS analysis", "format": "ADME", "settings": "liver microsomes, read-out: Stability"}, "[20]": {"target": "Tyrosine-protein kinase Lyn (Homo sapiens) (UniProt P07948)", "sequence (P07948 2-512 limits assumed)": "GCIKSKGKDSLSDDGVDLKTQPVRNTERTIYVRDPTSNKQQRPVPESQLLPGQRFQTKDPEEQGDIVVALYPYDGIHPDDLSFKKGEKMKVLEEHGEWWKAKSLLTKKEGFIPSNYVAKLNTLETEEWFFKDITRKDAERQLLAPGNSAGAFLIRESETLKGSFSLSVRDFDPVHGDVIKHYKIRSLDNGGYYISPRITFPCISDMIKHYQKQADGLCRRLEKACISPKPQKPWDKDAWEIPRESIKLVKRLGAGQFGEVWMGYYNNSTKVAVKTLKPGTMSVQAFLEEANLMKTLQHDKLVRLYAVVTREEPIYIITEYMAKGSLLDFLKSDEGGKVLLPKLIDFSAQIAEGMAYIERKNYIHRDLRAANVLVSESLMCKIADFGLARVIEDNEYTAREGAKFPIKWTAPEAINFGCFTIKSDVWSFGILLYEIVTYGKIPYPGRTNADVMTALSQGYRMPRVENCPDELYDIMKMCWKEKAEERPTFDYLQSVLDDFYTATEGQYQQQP", "test": "Inhibition of LYN (unknown origin) assessed as remaining activity at 10 uM in presence of [gamma-32P]ATP by […] assay"}, "[21]": {"target": "cAMP-dependent protein kinase catalytic subunit alpha (Homo sapiens) (UniProt P17612)", "test": "Inhibition of human recombinant PRKACA expressed in Escherichia coli assessed as remaining activity at 10 uM preincubated for 15 mins followed by PKA substrate peptide addition measured after 30 mins in presence of [gamma-32P]ATP by […] assay"}, "[22]": {"target": "Platelet-derived growth factor receptor alpha (Homo sapiens) (UniProt P16234)", "sequence (P16234 whole entry)": "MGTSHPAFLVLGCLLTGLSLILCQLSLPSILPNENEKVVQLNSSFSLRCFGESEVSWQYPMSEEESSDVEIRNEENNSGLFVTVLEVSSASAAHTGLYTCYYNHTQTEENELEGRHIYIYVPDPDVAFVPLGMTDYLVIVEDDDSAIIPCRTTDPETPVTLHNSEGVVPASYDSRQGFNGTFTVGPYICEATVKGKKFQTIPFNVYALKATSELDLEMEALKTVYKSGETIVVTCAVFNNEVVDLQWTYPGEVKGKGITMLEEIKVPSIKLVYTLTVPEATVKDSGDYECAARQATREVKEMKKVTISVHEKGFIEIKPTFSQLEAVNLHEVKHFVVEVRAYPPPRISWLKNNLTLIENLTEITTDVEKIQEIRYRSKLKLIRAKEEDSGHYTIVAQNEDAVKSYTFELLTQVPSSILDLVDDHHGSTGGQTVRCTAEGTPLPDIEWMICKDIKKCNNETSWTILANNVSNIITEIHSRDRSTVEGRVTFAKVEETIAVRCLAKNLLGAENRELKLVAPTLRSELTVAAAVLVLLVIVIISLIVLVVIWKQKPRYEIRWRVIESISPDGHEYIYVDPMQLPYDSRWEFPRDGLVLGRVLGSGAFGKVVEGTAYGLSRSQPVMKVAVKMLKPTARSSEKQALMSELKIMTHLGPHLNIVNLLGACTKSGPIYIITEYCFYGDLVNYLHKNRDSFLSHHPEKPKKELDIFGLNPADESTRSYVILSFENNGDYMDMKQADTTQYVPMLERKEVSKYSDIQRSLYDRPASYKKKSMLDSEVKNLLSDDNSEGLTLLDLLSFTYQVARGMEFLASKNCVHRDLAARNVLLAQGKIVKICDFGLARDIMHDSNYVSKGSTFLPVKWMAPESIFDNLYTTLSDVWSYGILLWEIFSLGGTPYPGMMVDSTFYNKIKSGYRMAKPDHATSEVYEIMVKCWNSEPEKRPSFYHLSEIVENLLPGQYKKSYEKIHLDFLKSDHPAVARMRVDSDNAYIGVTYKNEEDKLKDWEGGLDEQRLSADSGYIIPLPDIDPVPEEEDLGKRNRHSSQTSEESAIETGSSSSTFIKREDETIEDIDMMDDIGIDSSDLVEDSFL", "test": "Inhibition of recombinant human PDGFR-alpha expressed in insect Sf21 cells assessed as remaining activity at 10 uM preincubated for 15 mins followed by poly(Glu:Tyr) substrate addition for 30 mins in presence of [gamma-32P]ATP by […] assay"}, "[23]": {"target": "Tyrosine-protein kinase JAK1 (Homo sapiens) (UniProt P23458)", "test": "Inhibition of human JAK1 assessed as remaining activity at 10 uM in presence of [gamma-32P]ATP by […] assay"}, "[24]": {"target": "Tyrosine-protein kinase ABL1 (Homo sapiens, UniProt P00519)", "test": "Inhibition of recombinant human ABL1 expressed in insect cells preincubated for 15 mins followed by poly(Glu:Tyr) substrate addition for 30 mins in presence of [gamma-32P]ATP by […] assay"}, "[25]": {"target": "Vascular endothelial growth factor receptor 1 (Homo sapiens) (UniProt P17948)", "test": "Inhibition of recombinant human FLT1 expressed in insect Sf21 cells assessed as remaining activity at 10 uM preincubated for 15 mins followed by poly(Glu:Tyr) substrate addition for 30 mins in presence of [gamma-32P]ATP by […] assay"}}, "note": "pIC50: −log10 of the molar value."}
{"smiles": "CNCCOc1ccc(-c2sc3nc(-c4cccs4)nc(NN4C(=O)C=C(C)C4=O)c3c2C)cc1.Cl", "values": [{"measurement": "Activity", "setting": "[1]", "result": 89, "unit": "%"}, {"measurement": "GI50", "setting": "cells [2]", "result": 540, "unit": "nM"}, {"measurement": "Activity", "setting": "[3]", "result": 80, "unit": "%"}, {"measurement": "Activity", "setting": "[4]", "result": 111, "unit": "%"}, {"measurement": "AUC(0-inf)", "setting": "[5]", "result": 2120, "unit": "ng·h/mL"}, {"measurement": "half-life", "setting": "[6]", "result": 15.2, "unit": "h"}, {"measurement": "Activity", "setting": "[7]", "result": 96, "unit": "%"}, {"measurement": "Activity", "setting": "[8]", "result": 87, "unit": "%"}, {"measurement": "Cmax", "setting": "[9]", "result": 420, "unit": "ng/mL"}, {"measurement": "Activity", "setting": "[10]", "result": 67, "unit": "%"}, {"measurement": "Activity", "setting": "[11]", "result": 110, "unit": "%"}, {"measurement": "Activity", "setting": "[12]", "result": 53, "unit": "%"}, {"measurement": "Activity", "setting": "[13]", "result": 44, "unit": "%"}, {"measurement": "Activity", "setting": "[14]", "result": 114, "unit": "%"}, {"measurement": "GI50", "setting": "cells [15]", "result": 564, "unit": "nM"}, {"measurement": "Activity", "setting": "[16]", "result": 113, "unit": "%"}, {"measurement": "Activity", "setting": "[17]", "result": 46, "unit": "%"}, {"measurement": "Activity", "setting": "[18]", "result": 99, "unit": "%"}, {"measurement": "remaining at 0.5 h, 1 µM", "setting": "[19]", "result": 67.1, "unit": "%"}, {"measurement": "Activity", "setting": "[20]", "result": 58, "unit": "%"}, {"measurement": "Activity", "setting": "[21]", "result": 112, "unit": "%"}, {"measurement": "Activity", "setting": "[22]", "result": 115, "unit": "%"}, {"measurement": "Activity", "setting": "[23]", "result": 111, "unit": "%"}, {"measurement": "pIC50", "setting": "[24]", "result": 5.54}, {"measurement": "Activity", "setting": "[25]", "result": 40, "unit": "%"}]}
